Assay results as given in US20080145412A1, “METHOD OF PROMOTING ANGIOGENESIS” (Acologix, Inc., priority 2006, published 2008).

Experiments:
FGF2 [1] = assay: Angiogenesis antibody array (TranSignal Mouse Angiogenesis Antibody Array) of lysates from AC-100 treated calvariae; format: cell-based; conditions: calvaria lysates
Text: To investigate whether AC-100 modulates bone anabolic factors that are sequestered within the bone matrix we have analysed lysates from AC-100 treated calvariae.
Initial experiments analysed the lysates using an angiogenesis antibody array (TranSignal Mouse Angiogenesis Antibody Array, Panomics).

FGF-2 = FGF-2 production in mouse calvaria organ cultures (FIG. 1); format: cell-based; conditions: tissue lysates and conditioned media
Protocol: AC-100 at both 1 and 10 uM concentrations increased the production of FGF-2 in mouse calvaria organ cultures. Increases were found in both tissue lysates and in the conditioned media of cultures treated with AC-100.

FGF2 [2] = assay: ELISA timecourse of FGF2 in calvaria organ culture lysates and conditioned media (FIG. 2A); format: cell-based, mouse
Protocol: (§1) To quantitatively measure the increase in FGF2 in AC-100 treated bones, lysates were harvested over a comprehensive timecourse (30 min, 1 hr, 2 hr, 6 hr, 24 hr, 48 hr, 72 hr, day 4, day 5) and analysed for FGF2 and other bone anabolic factors using ELISA. […] Consistent with our previous findings AC-100 increased PGE2 in the conditioned media and TGFbeta and Fibronectin in both the conditioned media and bone lysate.
(§2) In addition, this response roughly correlated with expression of PGE-2 following AC-100 treatment (2B), TGF-β (2C) and Fibronectin (2D). Increases in PGE2 in the same cultures were observed from […].

PGE2 = PGE2 in murine calvarial organ culture (FIG. 2B); format: cell-based, mouse
Protocol: (§3) We have previously reported AC-100 treatment increases PGE2, TGFbeta and Fibronectin levels in the conditioned media from the murine calvarial organ culture. Histological evaluation of the bones indicated AC-100 increased the amount of new bone formation and numbers of osteoblasts.
as §1, §2

TGFbeta = TGFbeta in murine calvarial organ culture (FIG. 2C); format: cell-based, mouse
Protocol: as §3, §1, §2

Fibronectin = Fibronectin in murine calvarial organ culture (FIG. 2D); format: cell-based, mouse
Protocol: as §3, §1, §2

[3] = tested on: murine calvarial organ culture; assay: Histological evaluation of bones from murine calvarial organ culture; format: cell-based, mouse; conditions: histological evaluation of the bones
Text: as §3

BMP2 [4] = assay: Synergy with BMP2 in vitro; format: cell-based; conditions: combination with BMP2, in vitro
Text: (§4) BMP2, a potent osteogenic agent is also a strong stimulator of angiognenesis.

BMP2 [5] = assay: Synergy with BMP2 in vivo, ossicle formation
Text: as §4

bone healing = assay: Bone healing in diverse animal models; format: in vivo
Text: Angiogenesis is a crucial part of bone healing.

[6] = conditioned media, murine calvarial organ culture, previously reported

TDLQERGDNDISPFSGDGQPFKD [AC-100]
FGF2 signal at 2 hr (FGF2 [1]; 2 hr): increased
FGF2 signal 24 hr through day 3 (FGF2 [1]; 24 hr through day 3): the same as the control bones
FGF2 signal at day 5 (FGF2 [1]; day 5, control signal significantly reduced): still strong
FGF2 signal, overall course (FGF2 [1]; versus control bones): earlier and prolonged increase
production of FGF-2 (FGF-2; AC-100 1 uM): increased
production of FGF-2 (FGF-2; AC-100 10 uM): increased
FGF2 in conditioned media (FGF2 [2]; ELISA, conditioned media): not detectable
FGF2 in bone lysates (FGF2 [2]; ELISA, lysates, 30 min through day 5): potent increase
production of FGF-2 over time (FIG. 2A) (FGF2 [2]; approximately 1 hr to 5 days): increased
PGE2 in conditioned media (PGE2; ELISA, conditioned media): increased
PGE2 levels (PGE2; [6]): increases
PGE2 over time (FIG. 2B) (PGE2; same cultures, days 2-7): Increases
TGFbeta in bone lysate (TGFbeta; ELISA, bone lysate): increased
TGFbeta in conditioned media (TGFbeta; ELISA, conditioned media): increased
TGFbeta levels (TGFbeta; [6]): increases
Fibronectin in bone lysate (Fibronectin; ELISA, bone lysate): increased
Fibronectin in conditioned media (Fibronectin; ELISA, conditioned media): increased
Fibronectin levels (Fibronectin; [6]): increases
amount of new bone formation [3]: increased
numbers of osteoblasts [3]: increased
activity with BMP2 in vitro (BMP2 [4]): synergistic activities
osteons and blood vessels in ossicles (BMP2 [5]; BMP2 and AC-100 co-treatment): contain mature osteons with new blood vessels
structure of ossicles formed (BMP2 [5]; BMP2 and AC-100 co-treatment versus BMP2 alone): more mature structure
activity with BMP2 in vivo (BMP2 [5]; combination with BMP2, in vivo): synergistic activities
healing (bone healing): earlier healing
new bone formed (bone healing): increased amount and better quality of new bone
